The values below are quoted from earlier work in patent US9717692B2, “Effervescent formulations comprising dexketoprofen” (priority 2011, dated 2017).

For the data set the following is noted: Sunshine et al., WO89/046558.

Consider `C[C@H](C(=O)O)c1cccc(C(=O)c2ccccc2)c1` [Dexketoprofen, (+)-(S)-2-(3-Benzoylphenyl) propionic acid], for which the “effect compared with racemic ketoprofen of the same amount” value was “quicker and stronger effect”.
